Test results reported in patent US7786042B2, “Fluridone as an anti-inflammatory agent” (Universita' Degli Studi Di Genova, priority 2005, dated 2010).
Entries after “also recorded” stand apart in the source; their conditions may differ. Read-outs that look alike come from different tables or passages of the source.

How the values were obtained:
human granulocytes [1] = experiment: NO release by granulocytes (nitrite, Griess); format: cell-based
Experimental: Granulocytes were resuspended at 5×10^6/ml in HBSS and 225 μl of the cell suspension were added to 50 μl of 0.2 mM cytochrome c and were incubated for 30 min at 37° C. in the absence (control) or in the presence of 250 nM or 20 μM ABA, the latter concentration without or with 1 mM EDTA, 20 mM nicotinamide or 0.1 mM 8-Br-cADPR. […] The results are expressed as the production relative to control cells, not stimulated with ABA, and are the mean ±SD from 5 experiments.

[2] = system: murine macrophages RAW 264.7; experiment: PGE2 production by murine macrophages RAW 264.7; format: cell-based
Experimental: (§1) Murine macrophages of the continuous cell line RAW 264.7 were pre-incubated with 50 μM fluridone (flu) for 2 hours and then stimulated with 10 μM ABA or with 100 ng/ml of lipopolysaccharide (LPS) for 6 hours. The concentration of PGE2 (panel A) or of TNF-α (panel B) in the cell supernatant was measured as described under Materials and Methods and was compared with that from untreated (control) cells. The results are the mean ±SD from 4 experiments.
(§2) The method used to assay TNF-α is based on the high sensitivity of the murine fibroblast cell line L929 to the toxic effect of this cytokine. Briefly, fibroblasts were seeded (3×10^4/well) in 96-well plates and after 24 h the medium was substituted with the supernatant of the cell cultures where the TNF-α content was to be estimated. In parallel, known amounts of the cytokine were added to other wells, in order to obtain a standard curve of toxicity. After 48 hours, MTT (0.05 mg/ml) was added to each well and after 3 hours incubation at 37° C. (during this time viable cells reduce the dye producing formazan crystals), the medium was removed, DMSO (200 μl/well) was added to dissolve the formazan crystals and the absorbance was recorded at 570 nm with a spectrophotometric plate reader. The TNF-α concentration in the culture supernatants was calculated by comparison of the percentage of viable cells in the treated wells with those containing known amounts of TNF-α (standard curve). The PGE2 release in the medium by stimulated inflammatory cells was measured by an immunoenzymatic assay kit, commercially available (PGE2 EIA-kit, Cayman Chemicals, Ann Arbor, Mich., USA).

human monocytes [3] = experiment: MCP-1 release from human monocytes; format: cell-based
Experimental: Human monocytes were incubated for 6 hours with 10 μM ABA or with 100 ng/ml of lipopolysaccharide (LPS), in the presence or in the absence of fluridone (50 μM) and the MCP-1 concentration in the cell supernatant was immunoenzimatically measured, with a commercially available kit (R&D System, CA, USA). The results are the mean ±SD from 3 experiments.

human lymphocytes = experiment: Lymphocyte proliferation ([3H]-thymidine incorporation); format: cell-based; settings: for inhibition at 50 µM: Homo sapiens, Lymphocyte, pre-incubation with fluridone 50 μM
Experimental: Low density mononuclear cells (lymphocytes and monocytes), isolated from peripheral blood, were incubated in triplicate (1.5×10^5/well) in 96-well plates in RPMI containing 20% autologous plasma in the absence (control) or in the presence of 50 μM fluridone for 18 hours. Phytohemagglutinin (PHA) (0.1 μg/ml) or phorbol myristate acetate (PMA) (0.1 μg/ml) were then added, with or without the simultaneous addition of ABA. After 72 hours, [^3H]-Thymidine (Amersham Biosciences, Uppsala, Sweden) was added to the cultures (0.2 μCi/well) and after 6 hours the incorporated radioactivity was evaluated by filtration of the cells on glass fiber filters (Whatman, Maidenstone, UK). Results are the mean ±SD from 3 experiments. In the absence of stimuli (PHA or PMA), no lymphocyte proliferation was observed.
Blood enriched in leukocytes (buffy coat), was provided by Galliera Hospital, Genova, Italy, upon informed consent of the volunteer donors. Lymphocytes, granulocytes and monocytes were isolated by density centrifugation through Ficoll-Paque (Amersham Biosciences, Uppsala, Sweden). Low-density mononuclear cells (including lymphocytes and monocytes) were collected at the plasma-Ficoll interphase and monocytes were further purified by adherence to plastic cell culture flasks. Granulocytes were isolated from high-density cells, sedimented under the Ficoll layer by hypotonic lysis of contaminating erythrocytes. All cell populations were then resuspended in RPMI 1640 medium (Sigma) containing penicillin (100 U/ml), streptomycin (100 μg/ml) and 20% autologous plasma. Culture conditions were as those described below for cell lines.

[4] = system: murine macrophages RAW 264.7; experiment: TNF-α production by murine macrophages RAW 264.7; format: cell-based
Experimental: as §1, §2

[5] = system: murine microglia cell line N9; experiment: NO release by murine microglia N9; format: cell-based
Experimental: The method used to determine NO released from the cells into the medium exploits the spontaneous conversion of NO to nitrates and the subsequent enzymatic reduction of nitrates to nitrites by the enzyme nitrate reductase. […] Granulocytes (60×10^6/well) or murine microglia cells N9 (2×10^5/well) were incubated in 24-well plates for 60 min at 37° C. in the presence of ABA at different concentrations. The supernatants were then centrifuged and diluted with an equal volume of Griess reagent (0.1% naphthyl-ethylenediamine dihydrochloride in distilled water, 1% sulphanylamide in 5% concentrated H3PO4). Absorbance at 545 nm was estimated after 10 min and the nitrite concentration was calculated using a standard curve, generated in parallel with known amounts of NaNO2.

[6] = system: murine macrophages RAW 264.7; experiment: COX-2 expression in LPS-stimulated RAW 264.7; format: cell-based; settings: exogenous ABA 10-20 μM added to fluridone-treated cultures
Experimental: Murine macrophages from the RAW 264.7 cell line were stimulated with 10 μM ABA or with 100 ng/ml lipopolysaccharide (LPS) for 6 hours, after pre-incubation with 50 μM fluridone for 3 hours.

human granulocytes [7] = experiment: ROS production by granulocytes (cytochrome c assay); format: cell-based; settings: ABA 0.2-20 μM
Experimental: Granulocytes were resuspended at 5×10^6/ml in HBSS and 225 μl of the cell suspension were added to 50 μl of 0.2 mM cytochrome c and were incubated for 30 min at 37° C. in the absence (control) or in the presence of 250 nM or 20 μM ABA, the latter concentration without or with 1 mM EDTA, 20 mM nicotinamide or 0.1 mM 8-Br-cADPR. The amount of ROS (panel A) or of NO (panel B) in the cell supernatant was measured as described in Materials and Methods. The results are expressed as the production relative to control cells, not stimulated with ABA, and are the mean ±SD from 5 experiments.
Release of superoxide (O2^−) by human granulocytes was quantified by a spectrophotometric assay of cytochrome c reduction (Cohen, J Clin Invest 1978). Granulocytes were resuspended in HBSS (at 5×10^6 cells/ml) and 225 μl of the cell suspension was incubated for 30 min at 37° C. with 50 μl cytochrome c (0.2 mM) in the absence (control) or in the presence of ABA at different concentrations. Then, cells were centrifuged at 5,000×g for 15 s and the absorbance of the supernatants was recorded at 550 nm (λmax for reduced cytocrome c).

human monocytes [8] = experiment: TNF-α release by human monocytes (L929 toxicity assay); format: cell-based
Experimental: as §1, with “Human monocytes were” for “Murine macrophages of the continuous cell line RAW 264.7 were”, “A) and” for “A) or”, “and” for “and was”, “that of” for “that from”, “untreated cells (control).” for “untreated (control) cells.”
as §2

[9] = system: murine microglia cell line N9; experiment: TNF-α release by murine microglia N9; format: cell-based
Experimental: Confluent cell cultures from the murine microglia cell line N9 were pre-incubated in the presence or in the absence of 50 μM fluridone for 4 hours and then stimulated with 10 μM ABA or with 100 ng/ml lipopolysaccharide for 24 hours. The concentration of PGE2 (panel A) and of TNF-α (panel B) in the cell supernatant was measured as described under Materials and Methods. The results are expressed as release relative to control cultures in the absence of added stimuli and are the mean ±SD from 4 experiments.
as §2

human monocytes [10] = experiment: PGE2 production / COX-2 expression in human monocytes; format: cell-based
Experimental: as §1, with “Human monocytes were” for “Murine macrophages of the continuous cell line RAW 264.7 were”, “A) and” for “A) or”, “and” for “and was”, “that of” for “that from”, “untreated cells (control).” for “untreated (control) cells.”
as §2

rats = settings: oral administration; cited from earlier work
[11] = exogenous ABA 10-20 μM added to fluridone-treated cultures

CC1=CC(=O)CC(C)(C)[C@@]1(O)/C=C/C(C)=C\C(=O)O (racemic) [ABA, (±)-cis, trans ABA]
production/release of nitric oxide (NO) (human granulocytes [1]; ABA 0.2-20 μM): stimulation; also recorded: ↑NO release
release of PGE2 (COX-PGE2) ([2]; ABA 0.1-10 μM): increased release; also recorded: ↑COX-PGE2
increase of release of MCP-1 (human monocytes [3]; ABA 0.1-10 μM): approx. two-fold
Effects of ABA: MCP-1 release (human monocytes [3]; Added ABA 5-50 μM): ↑MCP-1 release
stimulation of proliferation (human lymphocytes; ABA 50 to 500 μM, in the absence of other stimuli (PMA, PHA)): 30%
Effects of ABA: proliferation (human lymphocytes; Added ABA 50-500 μM): ↑proliferation
restoration of the proliferative response (human lymphocytes; excess exogenous ABA 500 μM together with fluridone): approximately 40%
release of TNF-α ([4]; ABA 0.1-10 μM): increased release; also recorded: ↑TNF-α release
TNF-α release compromised by fluridone [4, 11]: partly restores
release of NO ([5]; ABA 0.2-20 μM): increase; also recorded: ↑NO release
NO release compromised by fluridone [5, 11]: partly restores
increase of COX-2 expression compromised by fluridone [6]: partly restores
production of reactive oxygen species (ROS) (human granulocytes [7]): stimulation; also recorded: ↑ROS release
release of TNF-α (human monocytes [8]; ABA 0.1-10 μM): significant increase
Effects of ABA: TNF-α release (human monocytes [8]; Added ABA 5-50 μM): ↑TNF-α release
TNF-α release compromised by fluridone (human monocytes [8]; [11]): partly restores
release of TNF-α ([9]; ABA 0.2-20 μM): increase; also recorded: ↑TNF-α release
TNF-α release compromised by fluridone [9, 11]: partly restores
expression of cyclooxygenase 2 (COX-2), Western blot (human monocytes [10]; ABA 0.1-10 μM): increased expression
production of prostaglandin E2 (PGE2) (human monocytes [10]; ABA 0.1-10 μM): increased production
Effects of ABA: COX-PGE2 (human monocytes [10]; Added ABA 5-50 μM): ↑COX-PGE2

Cn1cc(-c2ccccc2)c(=O)c(-c2cccc(C(F)(F)F)c2)c1 [Fluridone, 1-methyl-3-phenyl-5-(α,α,α-trifluoro-m-tolyl)-4-pyridone]
Effects of Fluridone: fMLP-, ATP-, β-amyloid-induced NO release (human granulocytes [1]): ↓fMLP-, ATP-, β-
inhibition at 50 µM (human granulocytes [1]; Homo sapiens, read-out: inhibition of NO release): ~80%
Effects of Fluridone: COX-PGE2 [2]: ↓COX-PGE2
LPS-stimulated PGE2 production ([2]; fluridone 50 μM): completely inhibits
Effects of Fluridone: MCP-1 release (human monocytes [3]): ↓MCP-1 release
release of MCP-1 by LPS-stimulated monocytes (human monocytes [3]; fluridone 50 μM): almost completely inhibits
Effects of Fluridone: PMA-, LPS-, PHA-induced proliferation (human lymphocytes): ↓PMA-, LPS-,
inhibition at 50 µM (human lymphocytes; read-out: inhibition of PHA-induced cell proliferation): 50%
inhibition at 50 µM (human lymphocytes; read-out: inhibition of PMA-induced cell proliferation): 90%
Effects of Fluridone: TNF-α release [4]: ↓TNF-α release
inhibition at 50 µM ([4]; Mus musculus, RAW264.7, fluridone 50 μM, read-out: inhibition of LPS-induced TNF-α production): 90%
LD50 (rats): > 10000 mg/kg
Effects of Fluridone: NO release [5]: ↓NO release
Effects of Fluridone: TNF-α release (human monocytes [8]): ↓TNF-α release
inhibition at 50 µM (human monocytes [8]; Homo sapiens, Monocyte, fluridone 50 μM, read-out: inhibition of LPS-induced TNF-α production): 90%
Effects of Fluridone: TNF-α release [9]: ↓TNF-α release
Effects of Fluridone: COX-PGE2 (human monocytes [10]): ↓COX-PGE2
LPS-stimulated PGE2 production (human monocytes [10]; fluridone 50 μM): completely inhibits
